Experiments:
[1] = tested on: HL-60; assay: In vitro cytotoxicity (IC50) assay, alamarBlue; type: cell-based; settings: HL-60, AML M2
Experimental: (§1) Cells were seeded in triplicate at 10,000 per 80 uL, into 96-well plates 24 hours before compound overlay and cultured at 37° C. and 5% CO2. Compound (I) was prepared as a 10 mM stock in 100% DMSO and diluted with RPMI 1640 cell growth medium containing 10% FBS such that the final concentrations ranged from 50 pM to 15 uM. Aliquots (20 uL) from each concentration were overlaid to 80 uL of pre-seeded cells to achieve final concentrations of 10 pM to 3 uM. After 3 days, cell viability in each well was assessed by alamarBlue assay according to the manufacturer's instruction (ThermoFisher Scientific). Absorbance was read at 570 nm using a SpectraPlus microplate reader (Molecular Devices Corporation). alamarBlue absorbance values were adjusted by subtracting the average of the baseline readings from untreated cells assessed one day after cell seeding. The percentage (%) of relative inhibition of cell viability was calculated by comparing to DMSO-treated cells. IC50s were calculated using GraphPad PRISM software (GraphPad Software Inc.).

[2] = tested on: JURKAT; assay: In vitro cytotoxicity (IC50) assay, alamarBlue; type: cell-based; settings: T-ALL
Experimental: as §1

[3] = tested on: K-562; assay: In vitro cytotoxicity (IC50) assay, alamarBlue; type: cell-based; settings: K-562, CML
Experimental: as §1

[4] = tested on: NB4; assay: In vitro cytotoxicity (IC50) assay, alamarBlue; type: cell-based; settings: NB4, AML M3
Experimental: as §1

[5] = tested on: OCI-AML4; assay: In vitro cytotoxicity (IC50) assay, alamarBlue; type: cell-based; settings: OCI-AML4, AML M4
Experimental: as §1

[6] = tested on: OCI-LY10; assay: In vitro cytotoxicity (IC50) assay, alamarBlue; type: cell-based; settings: OCI-LY10, NHL ABC-DLBCL
Experimental: as §1

[7] = tested on: RAJI; assay: In vitro cytotoxicity (IC50) assay, alamarBlue; type: cell-based; settings: NHL B-Cell Burkitt
Experimental: as §1

[8] = tested on: SU-DHL-8; assay: In vitro cytotoxicity (IC50) assay, alamarBlue; type: cell-based; settings: SU-DHL-8, NHL DLBCL
Experimental: as §1

[9] = tested on: MOLT-4 acute lymphoblastic leukemia xenograft; assay: MOLT-4 xenograft tumor growth in SCID mice; type: in vivo; settings: for complete regressions: 21 days of dosing; for tumors with regression observed / average tumor regression: day 13, fumarate
Experimental: The human acute lymphoblastic leukemia cell line MOLT-4 was acquired from American Type Culture Collection (Manassas, VA, USA) and grown in RPMI medium containing 100 units/mL penicillin G sodium, 100 μg/mL streptomycin sulfate. The media was supplemented with 10% heat-inactivated fetal bovine serum, 2 mM L-glutamine, and 0.11% sodium pyruvate. The tumor cells were maintained in a humidified environment of 5% CO2 and 95% air at 37° C. Cells were verified to be free of mouse pathogens by IMPACT IV PCR analysis (IDEXX RADIL, Colombia, MO, USA) before injection.
Female SCID mice were purchased from the Ontario Cancer Institute and received and acclimated at the MaRS-TMDT Animal Resources Centre for 2 weeks prior to the start of the experiment. The mice were fed ad libitum autoclaved water and Rodent Lab Diet (Harlan Teklad LM-485) consisting of 19% crude protein, 5% crude fat, and 5% crude fiber. Mice were housed in microisolator cages and maintained in an environment with a 12-hour light cycle at 20-22° C. and 40-60% humidity. On the day of implantation, MOLT-4 cells were harvested and resuspended with serum free DMEM to a concentration of 1×10^8/mL and each mouse was injected subcutaneously with a volume of 0.1 mL containing 1×10^7 MOLT-4 cells in the right rear flank.
Animals were dosed Compound (I) via oral gavage in a volume of 10 mL/kg. The animals were dosed with a 2.25 mm×50 mm curved gavage needle affixed to a 1 mL syringe. Vincristine was dosed by IP injection once per week.
Toxicity was evaluated by body weight measurements and clinical observations. The mice were observed daily for overt signs of any adverse, treatment related side effects, and clinical signs of toxicity. Acceptable toxicity was set at a group mean body weight loss of less than 20% during the study and not more than one treatment related death in a group. Animals were monitored for body weights and tumor growth where tumor volumes were calculated using the formula: tumor volume=width^2×length/2.
The study evaluated Compound (I) fumarate administered by oral gavage for 21 days, either daily at 7.5 mg/kg or 2 days on/5 days off at 13.5 mg/kg, in comparison to the standard-of-care agent vincristine, dosed in 4 weekly intraperitoneal injections of 0.5 mg/kg, in the MOLT-4 […] xenograft model in SCID (severe combined immunodeficiency) mice. Xenografts were established by subcutaneously injecting 1×10^7 tumor cells into the right flank of female SCID mice. Treatment was initiated 9 days following implantation when tumor volumes reached a mean volume of approximately 250 mm^3.

[10] = Phase 1 dose-escalation study (NCT03187288); type: in vivo, human
Experimental: This study (NCT number: NCT03187288) is a multi-center, phase 1, dose-escalation trial designed to assess the safety, tolerability, pharmacokinetics, and clinical benefit of treatment with Compound (I) fumarate administered orally over a range of doses in patients with acute myeloid leukemia (AML) or myelodysplastic syndrome (MDS) that is relapsed or refractory to current treatment or for which no curative therapy exists.
Results: 9 patients with relapsed or refractory AML were treated with escalating doses of Compound (I) (64 mg to 128 mg) administered orally once daily. Among them, 3 patients were dosed at 64 mg, 4 patients were dosed at 96 mg, and 2 patients were dosed at 128 mg. Of six patients evaluable for response, two (33%) achieved complete remission (CR), and 3 patients (50%) had stable disease (with one patient having a 78% reduction in marrow blast count). The dose limiting toxicity (DLT) was determined to be colitis at the 128 mg dose level. […] However, only 4 patients were enrolled at the 96 mg dose level before the study was paused for enrollment and was amended.

[11] = tested on: complex karyotype (CK) AML cell lines; assay: In vitro combination with standard of care agents; type: cell-based; settings: in combination with Venetoclax (Bcl2 inhibitor) and 5-Azacytidine; multiple CK AML cell lines in vitro
[12] = tested on: cancer cells; assay: Compound (I) treatment of cancer cells (FIG. 1); type: cell-based
Experimental: as §1

[13] = Homo sapiens, 72 h, 3 days, read-out: Compound (I) IC50
[14] = Day 25, 2-on/5-off arm 13.5 mg/kg

**Q.** For COc1ccc2c(c1)[C@]1(C[C@H]1c1ccc3c(/C=C/c4ccc(CN5C[C@@H](C)O[C@@H](C)C5)cc4)n[nH]c3c1)C(=O)N2 [Compound (I), (1R,2S)-2-(3-((E)-4-(((2S,6R)-2,6-dimethylmorpholino)methyl)styryl)-1H-indazol-6-yl)-5′-methoxyspiro[cyclopropane-1,3′-indolin]-2′-one], which “Response to Compound (I)” value [1] is on record?
**A.** The value was “death”.

**Q.** What about the IC50 [1, 13] of the same compound?
**A.** Its IC50 is 8.4 nM.

**Q.** And the IC50 [2, 13]?
**A.** Its IC50 is 0.6 nM.

**Q.** And the “Response to Compound (I)” value [2]?
**A.** The value was “death”.

**Q.** And the “Response to Compound (I)” value [3]?
**A.** The value was “mitotic defects +”.

**Q.** What about the “Response to Compound (I)” value [4] of the same compound?
**A.** Its value is “mitotic defects +”.

**Q.** And the “Response to Compound (I)” value [5]?
**A.** The value was “mitotic defects +”.

**Q.** And the IC50 [6, 13]?
**A.** The IC50 was 6.8 nM.

**Q.** What about the “Response to Compound (I)” value [6] of the same compound?
**A.** Its value is “death”.

**Q.** What about the IC50 [7, 13] of the same compound?
**A.** Its IC50 is 0.1 nM.

**Q.** And the “Response to Compound (I)” value [7]?
**A.** The value was “death”.

**Q.** And the IC50 [8, 13]?
**A.** The IC50 was 12 nM.

**Q.** What about the “Response to Compound (I)” value [8] of the same compound?
**A.** The value was “death”.

**Q.** What about the average regression [9, 14] of the same compound?
**A.** Its average regression is 96%.

**Q.** And the complete regressions [9, 14]?
**A.** Its complete regressions is 6 of 8.

**Q.** What about the complete regressions ([9]; Day 25, daily dosing arm 7.5 mg/kg) of the same compound?
**A.** Its complete regressions is 8 of 8.

**Q.** And the “overall efficacy in MOLT-4 xenograft model” value ([9]; SCID mice)?
**A.** Its value is “very efficacious and potentially curative”.

**Q.** And the “tumors with regression observed” value ([9]; oral 13.5 mg/kg 2-on/5-off)?
**A.** The value was 7 of 8.

**Q.** What about the average tumor regression ([9]; oral 13.5 mg/kg 2-on/5-off, p=6.5*10^-6) of the same compound?
**A.** The average tumor regression was 28%.

**Q.** And the “tumors with regression observed” value ([9]; oral daily 7.5 mg/kg)?
**A.** The value was 7 of 8.

**Q.** And the average tumor regression ([9]; oral daily 7.5 mg/kg, p=2.5*10^-6)?
**A.** Its average tumor regression is 77%.

**Q.** And the “dose limiting toxicity (DLT)” value ([10]; 128 mg dose level, orally once daily)?
**A.** Its value is “colitis”.

**Q.** And the “patients with stable disease” value ([10]; 3 of six evaluable patients, 64 mg to 128 mg orally once daily)?
**A.** The value was 50%.

**Q.** What about the “effect on outcome of a patient” value ([10]; a patient with CK AML) of the same compound?
**A.** The value was “positively affected the outcome”.

**Q.** What about the “reduction in marrow blast count” value ([10]; one patient with stable disease) of the same compound?
**A.** The value was 78%.

**Q.** What about the “single agent clinical activity” value ([10]; patients with poor risk AML) of the same compound?
**A.** The value was “has activity”.

**Q.** What about the “patients achieving complete remission (CR)” value ([10]; two of six evaluable patients, 64 mg to 128 mg orally once daily) of the same compound?
**A.** The value was 33%.

**Q.** What about the combination activity [11] of the same compound?
**A.** The combination activity was “additive/synergistic activity”.

**Q.** What about the “effect of treatment on cancer cells” value [12] of the same compound?
**A.** The value was “aberrant mitoses leading to death or arrest”.

From US12533357B2, “Treatment for acute myeloid leukemia or myelodysplastic syndrome” (UNIVERSITY HEALTH NETWORK, priority 2019, dated 2026)
